According to article PMC12295927, “Design, Synthesis, and Testing of 1,2,3-Triazolo-Quinobenzothiazine Hybrids for Cytotoxic and Immunomodulatory Activity” (International Journal of Molecular Sciences, 2025):

Experiments:
[1] = test system: MGC-803 gastric cancer cells; set-up: method as in PMID 30345465; conditions: cited from earlier work
[2] = test system: xenografted MGC-803 tumor; set-up: method as in PMID 30345465; conditions: oral study; cited from earlier work
[3] = test system: AIFM2 gene; assay: RT-qPCR AIFM2 gene expression in BEAS-2B; format: cell-based, Human; conditions: Homo sapiens, 24 h, reference gene RPL41, vs untreated control, read-out: Relative level of expression, AIFM2 gene
Experimental: (§1) Real-time polymerase chain reaction was performed for the reference gene RPL41 (ribosomal protein L41) and the tested genes: BCL2, AIFM2, MDM2, IL6 and IL8. […] The BEAS-2B line was selected for the experiment. The expression level of selected genes was measured after 24 h of incubation with the tested substances MJ1–MJ20 at a concentration of 100 μM (Table 3).
The RT-qPCR experiment was performed for the BEAS-2B cell line. In this experiment, the AIFM2 gene was studied and RPL41 was used as reference gene (Figure 16).
(§2) Gene expression studies used quantitative RT-qPCR to assess the effect of the tested quinobenzothiazines (MJ1–MJ20) on the expression of apoptosis-related genes (BCL2, AIFM2, MDM2) and pro-inflammatory cytokines (IL6, IL8) (Table 4).
(§3) BEAS-2B and HCT116 cells were seeded in 6-well plates at 2 × 10^5 cells per well and cultured in RPMI-1640 (BEAS-2B) or DMEM (HCT116) medium supplemented with 10% FBS and 1% penicillin/streptomycin at 37 °C, 5% CO2 and 95% humidity. After 24 h of incubation, the tested compounds were added at a concentration of 100 µM. After 24 h, the medium was removed from the cells, washed with PBS solution, 0.5 mL of trypsin was added per well and after 5 min it was neutralized with medium. The obtained cell suspension was centrifuged for 3 min at 2000 rpm, the supernatant was removed, and the obtained pellet was suspended in 400 µL of phenozol. Samples were frozen at −20 °C and stored until further experiment and RNA isolation.
(§4) Total RNA was isolated from cells using the A&A Biotechnology Total RNA Mini kit according to the manufacturer’s protocol. RNA quality and quantity were assessed using a NanoDrop 2000 spectrophotometer at 260/280 nm. Reverse transcription was performed using the protocol (EURx NG dART RT Kit) to obtain cDNA. After incubation, samples were placed in a freezer (−20 °C) and stored until further analysis.
(§5) The experiment was performed according to the protocol (Brilliant III Ultra Fast SYBR® Green QPCR Master Mix, Quick Reference Guide for the Bio-Rad CFX96 Real-Time PCR Detection System). RT-qPCR reaction was performed using specific primers for target genes (BCL2, AIFM2, MDM2, IL6, IL8). Gene expression was normalized to the expression of the reference gene RPL41. Reaction profiles and results were performed using Bio-Rad CFX Maestro 1.1 software from Bio-Rad. Analysis and calculations of the results obtained during RT-qPCR were performed using Microsoft Excel.
(§6) The results were analyzed using the R = 2^−ΔΔCt method, which allows for determining the relative level of gene expression (R) compared to the control. Each experiment was performed in three technical and biological replicates. RT-qPCR allowed for precise assessment of changes in the expression of genes related to the processes of apoptosis and inflammatory response under the influence of quinobenzothiazines, which allowed for identifying their potential mechanisms of action at the molecular level.

[4] = test system: IL6 gene; assay: RT-qPCR IL6 gene expression in BEAS-2B; format: cell-based, Human; conditions: Homo sapiens, 24 h, reference gene RPL41, vs untreated control, read-out: Relative level of expression, IL6 gene
Experimental: as §1
(§7) The RT-qPCR experiment was performed for the BEAS-2B cell line. In this experiment, the IL6 and IL8 genes were studied and RPL41 was used as a reference gene (Figure 17 and Figure 18).
as §2, §3, §4, §5, §6

[5] = test system: BCL2 gene; assay: RT-qPCR BCL2 gene expression in BEAS-2B; format: cell-based, Human; conditions: Homo sapiens, 24 h, reference gene RPL41, vs untreated control, read-out: Relative level of expression, BCL2 gene
Experimental: as §1
The RT-qPCR experiment was performed for the BEAS-2B cell line. In this experiment, the BCL2 gene was studied, and RPL41 was used as the reference gene (Figure 14).
as §2, §3, §4, §5, §6

[6] = test system: IL8 gene; assay: RT-qPCR IL8 gene expression in BEAS-2B; format: cell-based; conditions: Homo sapiens, 24 h, reference gene RPL41, vs untreated control, read-out: Relative level of expression, IL8 gene
Experimental: as §1, §7, §2, §3, §4, §5, §6

[7] = test system: MDM2 gene; assay: RT-qPCR MDM2 gene expression in BEAS-2B; format: cell-based, Human; conditions: 24 h; for fold induction at 100 µM: Homo sapiens, reference gene RPL41, vs untreated control, read-out: Relative level of expression, MDM2 gene
Experimental: as §1
The RT-qPCR experiment was performed for the BEAS-2B cell line. In this experiment, the MDM2 gene was studied and RPL41 was used as reference gene (Figure 15).
as §2, §3, §4, §5, §6

[8] = test system: BEAS-2B; assay: Alamar Blue cytotoxicity test, BEAS-2B; format: cell-based, Human; conditions: Homo sapiens, 24 h, 24 h incubation, read-out: IC50 values for BEAS-2B line
Experimental: The cytotoxicity of the tested chemical compounds MJ1–MJ20 was tested using the Alamar Blue test. The experiment was conducted on cell lines BEAS-2B (Figure 7), HCT116 (Figure 8), U2OS (Figure 9), MCF7 (Figure 10), SH-SY5Y (Figure 11), NHDF (Figure 12), and A549 (Figure 13). Cells were seeded in 96-well plates and incubated with the tested compounds for 24 h. The test result is the IC50 parameter, which is a measure of cytotoxic activity expressed by the concentration of the substance that causes the death of half of the analyzed cells compared to the control.
In cytotoxicity studies, the Alamar Blue test was used, which is based on the ability of living cells to reduce the non-fluorescent dye resazurin to fluorescent resorufin, which reflects the metabolic activity of cells. BEAS-2B, NHDF, HCT116, MCF7, A549, SH-SY5Y and U2OS cell lines were cultured under standard conditions, in DMEM medium supplemented with 10% FBS and 1% penicillin/streptomycin, at 37 °C, 5% CO2 and 95% humidity. Cells were seeded in 96-well plates at 1 × 10^4 cells per well and incubated for 24 h. Then, the tested compounds (MJ1–MJ20) were added at different concentrations (from 6.25 µM to 100 µM). The control contained cells untreated with the tested compounds. After 24 h of incubation, 10 µL of Alamar Blue solution was added to each well and incubated for another 2–4 h under the same conditions. The signal was measured spectrophotometrically at wavelengths of 570 nm (for resorufin) and 600 nm (for resazurin) or optionally fluorimetrically, using an excitation maximum of 570 nm and an emission maximum of 585 nm. The results were presented as percentage of cell survival relative to the control, calculating the ratio of absorbance or fluorescence of the sample to the control value. The Alamar Blue assay, due to its sensitivity and non-toxicity, allows for an accurate assessment of metabolic activity and cell survival in response to the tested quinobenzothiazines.

SMILES	IC50 [1] [µM]	Growth of xenografted MGC-803 tumor in vivo [2]	fold induction at 100 µM [3]	fold induction at 100 µM [4]	fold induction at 100 µM [5]	fold induction at 100 µM [6]	fold induction at 100 µM [7]	IC50 [8] [µM]	MDM2 expression increase ([7]; 100 μM, compared to control) [fold]
COc1ccc(-n2cc(CN3c4ccccc4Sc4ccccc43)nn2)cc1 [compound A]	1.2	effectively inhibit the growth							
N#Cc1ccc(Cn2cc(CN3c4ccccc4Sc4cc5ccccc5nc43)nn2)cc1 [MJ4, 4-((4-((Quino[3,2-b]benzo[1,4]thiazin-6-yl)methyl)-1H-1,2,3-triazol-1-yl)methyl)benzonitrile]			1.4	3.1	9.3	0.8	4.3	64.5	
c1ccc(Cn2cc(CN3c4ccccc4Sc4cc5ccccc5nc43)nn2)cc1 [MJ1]			2.4	3	23	0.3	5.4	73.8	
CSc1ccc2c(c1)Sc1cc3ccccc3nc1N2Cc1cn(Cc2ccc(F)cc2)nn1 [MJ17, 9-Methylthio-6-((1-(4-fluorobenzyl)-1H-1,2,3-triazol-4-yl)methyl)-quino[3,2-b]-benzo[1,4]thiazine]			2.5	28	33.9	5.7	11	72.6	11.0
